Among the test systems are UACC-257; HT-29; OVCAR-3; NCI-H226; SW-620; CAKI-1; MOLT-4; EKVX; COLO 205; SK-MEL-5; NCI/ADR-RES; HCC 2998; XF498; SN12C; ACHN; NCI-H522; PC-3; DU-145.
What all share (test): growth of human tumour cells (NCI), 48 h

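Assay format: 96-well plates, 48-hour exposure. GI50 is the concentration that inhibits growth by half.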 The source made the active and inactive calls. Rule as the data show it: active = GI50 up to about 1.1 µM and inactive = higher. Some results are limits rather than exact numbers.

Take `C=C1CCCC(C)(C)[C@@H]1CC/C(C)=C/Cn1c2cccc(=O)c-2nc2ccccc21`: the GI50 with UACC-257 was 1.96 µM (inactive); in the assay with HT-29, 1.77 µM (inactive); in the assay with OVCAR-3 it was 3.18 µM (inactive); in the assay with NCI-H226, 3.99 µM (inactive); in the assay on SW-620, 1.61 µM (inactive); in the assay on CAKI-1, 1.77 µM (inactive). The GI50 is 0.41 µM (active) in the assay with MOLT-4; 4.4 µM (inactive) in the assay with EKVX; 1.96 µM (inactive) in the assay on COLO 205; 3.95 µM (inactive) in the assay on SK-MEL-5; 0.656 µM (active) in the assay on NCI/ADR-RES; 2.06 µM (inactive) with HCC 2998. The GI50 was 2.29 µM (inactive) with XF498 and 1.59 µM (inactive) in the assay on SN12C.

In the case of `Nc1ncnc2c1ncn2COC/C=C/I`, the GI50 in the assay with UACC-257, in the assay with HT-29, in the assay with OVCAR-3, with NCI-H226, in the assay on ACHN and in the assay on SW-620 was > 100 µM (inactive) throughout. The GI50 in the assay with CAKI-1 is > 100 µM (inactive); with NCI-H522, > 100 µM (inactive); with MOLT-4, > 100 µM (inactive); in the assay on EKVX, 77.6 µM (inactive); in the assay on COLO 205 it was > 100 µM (inactive); in the assay with SK-MEL-5, > 100 µM (inactive). Besides, the GI50 in the assay with HCC 2998, in the assay with XF498 and in the assay with SN12C was > 100 µM (inactive) in each case.

As to `Cn1c(=O)nc2n(-c3ccc(F)cc3)c3ccccc3nc-2c1=O`, the GI50 with UACC-257 is 14.4 µM (inactive); with HT-29, 14.1 µM (inactive); in the assay with OVCAR-3 it was 3.13 µM (inactive); with NCI-H226, 36.7 µM (inactive); in the assay with ACHN, 13.9 µM (inactive); in the assay with SW-620 it was 18.8 µM (inactive). In addition, the GI50 in the assay with CAKI-1 was 28.8 µM (inactive); in the assay with NCI-H522 it was 16.1 µM (inactive); with MOLT-4, 25.7 µM (inactive); in the assay on EKVX, 16.4 µM (inactive); in the assay on COLO 205, 6.84 µM (inactive); with SK-MEL-5, 12.6 µM (inactive). Moreover, the GI50 in the assay with HCC 2998 is 19.1 µM (inactive); in the assay on XF498, 19.3 µM (inactive); in the assay with SN12C, 20.5 µM (inactive).

With `O=C(O)CCC(=O)N1c2ccccc2CC1c1c[nH]c2ccccc12` (configuration not stated), the GI50 in the assay on UACC-257, in the assay with HT-29, in the assay on OVCAR-3, in the assay with NCI-H226, with ACHN and with SW-620 was > 100 µM (inactive) each time. Also, the GI50 is > 100 µM (inactive) in the assay with CAKI-1; 76.6 µM (inactive) in the assay on NCI-H522; > 100 µM (inactive) in the assay on MOLT-4; > 100 µM (inactive) in the assay on EKVX; > 100 µM (inactive) in the assay on COLO 205; > 100 µM (inactive) with SK-MEL-5. Further, the GI50 in the assay with HCC 2998, in the assay with XF498 and with SN12C was > 100 µM (inactive) in each case.

Turning to `CCCCCCCCCCCC1CCCC(C)N1` (configuration not stated), the GI50 in the assay on UACC-257 was 45.8 µM (inactive); in the assay with HT-29, 20.6 µM (inactive); in the assay on OVCAR-3 it was 72.9 µM (inactive); in the assay with NCI-H226 it was 76.9 µM (inactive); in the assay on SW-620, 58.3 µM (inactive); with CAKI-1, 43.2 µM (inactive). For the same compound, the GI50 with NCI-H522 is 35.9 µM (inactive); in the assay with MOLT-4 it was 15.9 µM (inactive); in the assay on EKVX it was 47.3 µM (inactive); with COLO 205, 36 µM (inactive); in the assay on SK-MEL-5 it was 36.4 µM (inactive); with NCI/ADR-RES, 72.4 µM (inactive). Also, the values for the GI50 in the assay on HCC 2998, in the assay on XF498 and in the assay on SN12C were 46.3 µM (inactive), 47.4 µM (inactive) and 53.1 µM (inactive), respectively.

As for `COC(=O)c1cc(CNCCc2c[nH]c3ccccc23)on1`, the GI50 in the assay on UACC-257 is > 100 µM (inactive); with HT-29, > 100 µM (inactive); with OVCAR-3, > 100 µM (inactive); in the assay with NCI-H226, > 100 µM (inactive); in the assay with PC-3, > 100 µM (inactive); in the assay with ACHN, > 60.8 µM (inactive). Also, the GI50 is > 100 µM (inactive) with SW-620; > 78.2 µM (inactive) in the assay on CAKI-1; 29.6 µM (inactive) in the assay with NCI-H522; > 100 µM (inactive) with MOLT-4; > 100 µM (inactive) in the assay with EKVX; > 100 µM (inactive) in the assay on COLO 205. Moreover, the GI50 in the assay on SK-MEL-5 is > 100 µM (inactive); in the assay on NCI/ADR-RES it was > 100 µM (inactive); in the assay on DU-145, > 100 µM (inactive); with HCC 2998, > 95.5 µM (inactive); in the assay with XF498, 23.1 µM (inactive); in the assay on SN12C, > 100 µM (inactive).

The record behind these values is ChEMBL document CHEMBL1201862, “PubChem BioAssay data set” (2004).
